# Data reported in publication PMC10859961, “Ir(III) Half-Sandwich Photosensitizers with a π-Expansive Ligand for Efficient Anticancer Photodynamic Therapy” (Journal of Medicinal Chemistry, 2024).
# “And” between values parts separate entries of the source, which are not always exact repeats. Equal values may be shown once. Read-outs that look alike come from different tables or passages of the source.
# Key:
# [1] = Stability in DMEM (UV-vis); type: physicochemical; settings: DMEM without phenol red; dark; 48 h
# Procedure: The stability of the complexes in biological media was studied by UV–vis spectroscopy. Complexes 1 and 2 were dissolved in DMSO and complexes 3–8 were dissolved in MeOH at 1.0 × 10^–3 M and then diluted to 1.0 × 10^–5 M with Dulbecco’s modified Eagle’s medium (DMEM) without phenol red (Corning) (the final concentration of DMSO or MeOH was 1%). The solutions were studied in the dark and under blue light irradiation (470 nm).
# [2] = Stability and photostability studies by 1H NMR; type: physicochemical
# Procedure: Solutions of complexes 1 and 6 at 3.2 mM and 2 at 0.6 mM in DMSO-d6 and DMSO-d6/D2O mixture (9:1, v/v) were prepared.
# [3] = 1O2 quantum yield determination with ABDA; settings: H2O/DMSO (95:5); 470 nm blue light
# Procedure: Fresh stock air-equilibrated solutions of photosensitizers 1–2 and 7–8 (1.00 × 10^–3 M) and ABDA (6.00 × 10^–4 M) in H2O/DMSO (95:5) were prepared. In a quartz cell, 0.50 mL of ABDA solution, 0.03 mL of complex solution, and 2.47 mL of H2O/DMSO (95:5) were mixed to prepare a final solution with 1.00 × 10^–4 M ABDA and 1.00 × 10^–5 M complex. The final solutions were studied by recording UV–vis absorption spectra at room temperature under blue light irradiation (λexc = 470 nm, “Medusa” photoreactor) for 30 s irradiation intervals during a total exposure period of 5 min. Absorption UV–vis spectra were recorded after every irradiation interval.
# The consumption of ABDA probe was measured by monitoring its absorbance intensity decrease at 402 nm with irradiation time. ^1O2 generation quantum yield (ϕΔ) was calculated from eq 1 using Rose Bengal or [Ru(bpy)3]^2+ as reference. In this case, the ϕΔ values of the references in H2O/DMSO (95:5) are 0.76 for Rose Bengal[73] and 0.18 for [Ru(bpy)3]Cl2.[136] The reproducibility of the results was confirmed by performing each experiment three times.
# A549 cells [4] = test: Intracellular ROS production (CM-H2DCFDA, flow cytometry); type: cell-based, human; settings: for elevation of ROS levels (median fluorescence): 10 nM, 4 h then blue light 1 h, vs untreated control; for increase in cellular ROS content: complexes at IC50,dark, 5 h, no irradiation
# Procedure: A549 cells were seeded onto 24-well plates (5 × 10^4 cells/well) 24 h before the experiment. The cells were incubated for 4 h with complexes 2, 4, 6, and 8 at 10 nM and then photoactivated or kept in the dark for an additional hour. In addition, the cells were treated for 5 h with the complexes at the corresponding IC50,dark without irradiation. The cells exposed for 30 min to 0.5 μM FeCl2 and 0.04% H2O2, as ROS inducers, were used as positive control. After the treatments, the cells were washed with PBS and harvested by trypsinization. Intracellular ROS were detected by incubation with the chloromethyl 2′,7′-dichlorodihydrofluorescein diacetate (CM-H2DCFDA; Invitrogen) probe at 2.5 μM for 30 min at 37 °C. After washing with PBS, the median fluorescence of 1 × 10^4 cells was measured with a NovoCyte flow cytometer (Agilent Technologies) equipped with the NovoExpress software. The fold increase versus control untreated cells was determined for each treatment in three independent experiments.
# [5] = pKa determination (absorbance vs pH); type: physicochemical; settings: DMSO/H2O (2/98, v/v), Bu4NBF4 5 mM; piperidine ring
# Procedure: Solutions of complexes 5 and 6 (2.00 × 10^–5 M) and Imepip ligand (2.00 × 10^–3 M) in H2O/DMSO (98/2, v/v) mixture with n-Bu4NBF4 (5 mM) were prepared. The presence of the salt ensured the conductivity of the media. Evolution of the peaks was studied at different pH by recording the absorbance spectrum. Aliquots of 10 μL of HCl (0.002–0.020 M) or NaOH (0.002–0.020 M) were added to a solution of 2.4 mL of complex to vary the pH. The absorbance versus pH plot enables us to determine one constant according to the equation from the Wilson and Lester method (eq 2):[146] [drawing 23] 2 where Aa is the absorbance for the acid species, Ab is the absorbance for the basic species, and Am is the absorbance of the mixture. The intersection obtained by representing log(Am – Aa)/(Ab – Am) versus pH provides the pKa.
# [6] = tested on: multicellular A549 tumor spheroids; test: Cytotoxic activity against spheroids (CellTiter-Glo 3D); type: cell-based, human; settings: for IC50: 48 h
# Procedure: For the evaluation of the cytotoxic activity of complex 6 in 3D cultures, 96-well plates coated with a thin solidified layer of Geltrex reduced growth factor basement membrane matrix (Gibco) were used to form A549 spheroids. A density of 1500 single cells per well was seeded in culture medium supplemented with 2% Geltrex. Treatments with concentrations of complex 6 ranging from 5 to 0.001 μM in culture medium containing 2% Geltrex were performed at day 6. The cells were then kept in the dark or photoactivated with blue light, as described. After 48 h, the treatments were removed, the cells were washed with PBS and cell viability was determined by adding 100 μL of medium and 100 μL of CellTiter-Glo 3D reagent (Promega) to each well. Following the manufacturer’s protocol, the cells were kept in agitation for 5 min and incubated for 25 min at room temperature. Then, the luminescence was determined using a Multiscan Plate Reader (Synergy 4, Biotek, Winooski). The IC50 values were calculated with the Gen5 Data Analysis Software (BioTeck) for two independent experiments, each with duplicate samples. Nontreated cells were used as control.
# A549 cells [7] = test: Cell death mechanism (Annexin V-FITC / propidium iodide); type: cell-based, human; settings: photoactivated
# Procedure: The cell death mechanism was analyzed with the Vybrant Apoptosis Assay Kit (Molecular Probes). A549 cells seeded in 12-well plates at a density of 1 × 10^5 cells per well were treated with complex 6 at the corresponding IC50,light × 5 under photoactivation conditions. Cisplatin at 50 μM was used as positive control. 4 and 20 h after the irradiation, cells were collected by trypsinization and immediately stained with Annexin V-FITC and propidium iodide according to the manufacturer’s instructions. The median fluorescence of 10,000 cells of each sample was analyzed by flow cytometry. Annexin-FITC staining was detected at a wavelength of 520 nm (FL1) and propidium iodide was detected at 617 nm (FL2).
smiles,measurement,setting,value
"Cc1c(C)c(C)[c-](C)c1C.[Cl][Ir]1[c]2cccc3c4nc5ccccc5nc4c4ccc[n+]1c4c23 [complex 1, [(η^5-C5Me5)IrCl(pbpz)]]",stability in DMEM (UV–vis changes),[1],minor change
same,"Percentage of species (chlorido complex remaining / aqua adduct formed), 1H NMR","[2]; DMSO‐d6, dark, 0 h",100%
same,"Percentage of species (chlorido complex remaining / aqua adduct formed), 1H NMR","[2]; DMSO‐d6, dark, 0.5 h",78%
same,"Percentage of species (chlorido complex remaining / aqua adduct formed), 1H NMR","[2]; DMSO‐d6, dark, 1 h",76%
same,"Percentage of species (chlorido complex remaining / aqua adduct formed), 1H NMR","[2]; DMSO‐d6, dark, 1.5 h",75%
same,"Percentage of species (chlorido complex remaining / aqua adduct formed), 1H NMR","[2]; DMSO‐d6, dark, 2.5 h",72%
same,"Percentage of species (chlorido complex remaining / aqua adduct formed), 1H NMR","[2]; DMSO‐d6, dark, 4.5 h",71%
same,"Percentage of species (chlorido complex remaining / aqua adduct formed), 1H NMR","[2]; DMSO‐d6, dark, 6 h",70%
same,"Percentage of species (chlorido complex remaining / aqua adduct formed), 1H NMR","[2]; DMSO‐d6, dark, 8 h",69%
same,"Percentage of species (chlorido complex remaining / aqua adduct formed), 1H NMR","[2]; DMSO‐d6, dark, 10 h",68%
same,"Percentage of species (chlorido complex remaining / aqua adduct formed), 1H NMR","[2]; DMSO‐d6, dark, 32 h",57%
same,"Percentage of species (chlorido complex remaining / aqua adduct formed), 1H NMR","[2]; DMSO‐d6, dark, 50 h",49%
same,"Percentage of species (chlorido complex remaining / aqua adduct formed), 1H NMR","[2]; DMSO‐d6, dark, 70 h",40%
same,"Percentage of species (chlorido complex remaining / aqua adduct formed), 1H NMR","[2]; DMSO‐d6, dark, 97 h",35%
same,"Percentage of species (chlorido complex remaining / aqua adduct formed), 1H NMR","[2]; DMSO‐d6/D2O (9/1), dark, 0 h",100%
same,"Percentage of species (chlorido complex remaining / aqua adduct formed), 1H NMR","[2]; DMSO‐d6/D2O (9/1), dark, 0.5 h",4%
same,"Percentage of species (chlorido complex remaining / aqua adduct formed), 1H NMR","[2]; DMSO‐d6/D2O (9/1), dark, 1 h",0.5%
same,"Percentage of species (chlorido complex remaining / aqua adduct formed), 1H NMR","[2]; DMSO‐d6/D2O (9/1), dark, 1.5 h",0%
same,"Percentage of species (chlorido complex remaining / aqua adduct formed), 1H NMR","[2]; DMSO‐d6/D2O (9/1), dark, 2.5 h",0%
same,"Percentage of species (chlorido complex remaining / aqua adduct formed), 1H NMR","[2]; DMSO‐d6/D2O (9/1), dark, 4.5 h",0%
same,"Percentage of species (chlorido complex remaining / aqua adduct formed), 1H NMR","[2]; DMSO‐d6/D2O (9/1), dark, 6 h",0%
same,"Percentage of species (chlorido complex remaining / aqua adduct formed), 1H NMR","[2]; DMSO‐d6/D2O (9/1), dark, 8 h",0%
same,"Percentage of species (chlorido complex remaining / aqua adduct formed), 1H NMR","[2]; DMSO‐d6/D2O (9/1), dark, 10 h",0%
same,"Percentage of species (chlorido complex remaining / aqua adduct formed), 1H NMR","[2]; DMSO‐d6/D2O (9/1), dark, 32 h",0%
same,"Percentage of species (chlorido complex remaining / aqua adduct formed), 1H NMR","[2]; DMSO‐d6/D2O (9/1), dark, 50 h",0%
same,"Percentage of species (chlorido complex remaining / aqua adduct formed), 1H NMR","[2]; DMSO‐d6/D2O (9/1), dark, 70 h",0%
same,"Percentage of species (chlorido complex remaining / aqua adduct formed), 1H NMR","[2]; DMSO‐d6/D2O (9/1), dark, 97 h",0%
same,"1O2 generation quantum yield (ϕΔ), ABDA",[3],0.1913
"Cc1c(C)c(C)[c-](C)c1C.F[B-](F)(F)F.c1ccc2cc3nc4c5ccc[n+]6c5c5[c](cccc5c4nc3cc2c1)[Ir]6[n+]1cc[nH]c1 [complex 4, [(η^5-C5Me5)Ir(Im)(pbpn)]BF4]",elevation of ROS levels (median fluorescence),A549 cells [4],2.2 fold
same,increase in cellular ROS content,A549 cells [4],2.8 fold
"Cc1c(C)c(C)[c-](C)c1C.F[B-](F)(F)F.c1ccc2nc3c4ccc[n+]5c4c4[c](cccc4c3nc2c1)[Ir]5[n+]1ccn(CCN2CCCCC2)c1 [complex 5, [(η^5-C5Me5)Ir(Imepip)(pbpz)]BF4]",pKa,[5],7.2 and 7.19
"Cc1c(C)c(C)[c-](C)c1C.F[B-](F)(F)F.c1ccc2cc3nc4c5ccc[n+]6c5c5[c](cccc5c4nc3cc2c1)[Ir]6[n+]1ccn(CCN2CCCCC2)c1 [complex 6, [(η^5-C5Me5) Ir(Imepip)(pbpn)]BF4]",elevation of ROS levels (median fluorescence),A549 cells [4],2.4 fold
same,increase in cellular ROS content,A549 cells [4],2.6 fold
same,release of the N-donor ligand (1H NMR),"[2]; DMSO-d6/D2O (9/1), dark or blue, green or red light irradiation",not observed
same,pKa,[5],7.8 and 7.85
same,IC50,"[6]; blue light photoactivation, read-out: IC50,light",0.005 ± 0.001 µM
same,IC50,"[6]; dark, read-out: IC50,dark",1.2 ± 0.2 µM
same,PI,[6]; blue light,240
same,"cells in early apoptosis (AN+; IP−), lower right quadrant","A549 cells [7]; IC50,light × 5, 4 h",1.7%
same,"cells in late apoptosis (AN+; IP+), upper right quadrant","A549 cells [7]; IC50,light × 5, 4 h",15.8%
same,"cells in necrosis (AN–; IP+), upper left quadrant","A549 cells [7]; IC50,light × 5, 4 h",6.4%
same,"cells in late apoptosis (AN+; IP+), upper right quadrant","A549 cells [7]; IC50,light × 5, 20 h",43.2%
same,"cells in necrosis (AN–; IP+), upper left quadrant","A549 cells [7]; IC50,light × 5, 20 h",10.4%
"Cc1c(C)c(C)[c-](C)c1C.F[B-](F)(F)F.c1ccc(Cn2cc[n+]([Ir]3[c]4cccc5c6nc7ccccc7nc6c6ccc[n+]3c6c45)c2)cc1 [complex 7, [(η^5-C5Me5)Ir(bzIm)(pbpz)]BF4]","1O2 generation quantum yield (ϕΔ), ABDA",[3],0.0526
"Cc1c(C)c(C)[c-](C)c1C.F[B-](F)(F)F.c1ccc(Cn2cc[n+]([Ir]3[c]4cccc5c6nc7cc8ccccc8cc7nc6c6ccc[n+]3c6c45)c2)cc1 [complex 8, [(η^5-C5Me5)Ir(bzIm)(pbpn)]BF4]",elevation of ROS levels (median fluorescence),A549 cells [4],5.6 fold
same,increase in cellular ROS content,A549 cells [4],1.7 fold
same,"1O2 generation quantum yield (ϕΔ), ABDA",[3],0.4986
